US8680272B2, “3-arylethynyl substituted quinazolinone compounds” (Council of Scientific & Industrial Research, priority 2011, dated 2014)

Key:
A498 = assay: Anticancer activity, SRB assay, renal cell line A498; assay type: cell-based, human; settings: Homo sapiens, 48 h continuous drug exposure, —^b means GI50 values not attained at the concentrations used, read-out: Growth Inhibition GI50
Protocol: (§1) Some of biological activity studies were carried out at the National Cancer Institute (NCI), Maryland, USA.
(§2) The compounds were evaluated for anticancer activity against sixty human cancer cells derived from nine cancer types (leukemia cell line, non-small-cell lung cell line, colon cell line, CNS cell line, melanoma cell line, ovarian cell line, prostate cell line, renal cell line and breast cancer cell line) as shown in Table 1. For each compound, dose response curves for each cell line were measured at a minimum of five concentrations at 10 fold dilutions. A protocol of 48 h continuous drug exposure was used and a sulforhodamine B (SRB) protein assay was used to estimate cell viability or growth.

OVCAR-4 = assay: Anticancer activity, SRB assay, ovarian cell line OVCAR-4; assay type: cell-based, human; settings: Homo sapiens; Ovarian OVCAR-4; 48 h continuous drug exposure; —^b means GI50 values not attained at the concentrations used; read-out: Growth Inhibition GI50
Protocol: as §1, §2

HS 578T = assay: Anticancer activity, SRB assay, breast cell line HS 578T; assay type: cell-based, human; settings: Homo sapiens; Breast HS 578T; 48 h continuous drug exposure; —^b means GI50 values not attained at the concentrations used; read-out: Growth Inhibition GI50
Protocol: as §1, §2

[1] = system: six breast cancer cell line (MCF-7, MDA-MB-231/ATCC, HS 578T, TD-47D, MDA-MB-468 and BT-549); assay: Anticancer activity, SRB assay, breast panel; assay type: cell-based, human
Protocol: as §1, §2

[2] = system: seven colon cancer cell line (COLO 205, HCC-2998, HCT-116, HCT-15, HT29, KM12 and SW-620); assay: Anticancer activity, SRB assay, colon panel; assay type: cell-based, human
Protocol: as §1, §2

SK-MEL-5 = assay: Anticancer activity, SRB assay, melanoma cell line SK-MEL-5; assay type: cell-based; settings: Homo sapiens; Melanoma SK-MEL-5; 48 h continuous drug exposure; read-out: Growth Inhibition GI50
Protocol: as §1, §2

[3] = system: two prostate cancer cell line (PC-3, DU-145); assay: Anticancer activity, SRB assay, prostate panel; assay type: cell-based, human
Protocol: as §1, §2

OVCAR-8 = assay: Anticancer activity, SRB assay, ovarian cell line OVCAR-8; assay type: cell-based, human; settings: Homo sapiens; Ovarian OVCAR-8; 48 h continuous drug exposure; —^b means GI50 values not attained at the concentrations used; read-out: Growth Inhibition GI50
Protocol: as §1, §2

HOP-62 = assay: Anticancer activity, SRB assay, non-small lung cell line HOP-62; assay type: cell-based, human; settings: Homo sapiens; Non-small lung HOP-62; 48 h continuous drug exposure; —^b means GI50 values not attained at the concentrations used; read-out: Growth Inhibition GI50
Protocol: as §1, §2

NCI-H23 = assay: Anticancer activity, SRB assay, non-small lung cell line NCI-H23; assay type: cell-based; settings: Homo sapiens, Non-small lung NCl-H23, 48 h continuous drug exposure, read-out: Growth Inhibition GI50
Protocol: as §1, §2

HCT-116 = assay: Anticancer activity, SRB assay, colon cell line HCT-116; assay type: cell-based; settings: Homo sapiens; Colon HCT-116; 48 h continuous drug exposure; read-out: Growth Inhibition GI50
Protocol: as §1, §2

NCI-H226 = assay: Anticancer activity, SRB assay, non-small lung cell line NCI-H226; assay type: cell-based, human; settings: Homo sapiens, NCI-H226; Non-small lung NCl-H226; 48 h continuous drug exposure; —^b means GI50 values not attained at the concentrations used; read-out: Growth Inhibition GI50
Protocol: as §1, §2

SN12C = assay: Anticancer activity, SRB assay, renal cell line SN12C; assay type: cell-based, human; settings: Homo sapiens, 48 h continuous drug exposure, —^b means GI50 values not attained at the concentrations used, read-out: Growth Inhibition GI50
Protocol: as §1, §2

EKVX = assay: Anticancer activity, SRB assay, non-small lung cell line EKVX; assay type: cell-based; settings: Homo sapiens, 48 h continuous drug exposure, read-out: Growth Inhibition GI50
Protocol: as §1, §2

MDA-MB-231/ATCC = assay: Anticancer activity, SRB assay, breast cell line MDA-MB-231/ATCC; assay type: cell-based; settings: Homo sapiens; Breast MDA-MB-231/ATCC; 48 h continuous drug exposure; read-out: Growth Inhibition GI50
Protocol: as §1, §2

[4] = system: seven ovarian cancer cell lines (IGROV1, OVCAR-3, OVCAR-4, OVCAR-5, OVCAR-8, NCI/ADR-RES and SK-OV-3); assay: Anticancer activity, SRB assay, ovarian panel; assay type: cell-based, human
Protocol: as §1, §2

HL-60(TB) = assay: Anticancer activity, SRB assay, leukemia cell line HL-60(TB); assay type: cell-based; settings: Homo sapiens; Leukemia HL-60(TB); 48 h continuous drug exposure; read-out: Growth Inhibition GI50
Protocol: as §1, §2

NCI-H522 = assay: Anticancer activity, SRB assay, non-small lung cell line NCI-H522; assay type: cell-based, human; settings: Homo sapiens, NCI-H522; Non-small lung NCl-H522; 48 h continuous drug exposure; —^b means GI50 values not attained at the concentrations used; read-out: Growth Inhibition GI50
Protocol: as §1, §2

MOLT-4 = assay: Anticancer activity, SRB assay, leukemia cell line MOLT-4; assay type: cell-based; settings: Homo sapiens; Leukemia MOLT-4; 48 h continuous drug exposure; read-out: Growth Inhibition GI50
Protocol: as §1, §2

SW-620 = assay: Anticancer activity, SRB assay, colon cell line SW-620; assay type: cell-based; settings: Homo sapiens; Colon SW-620; 48 h continuous drug exposure; read-out: Growth Inhibition GI50
Protocol: as §1, §2

[5] = system: six CNS cancer cell line (SF-268, SF-295, SF-539, SNB-19, SNB-75 and U251); assay: Anticancer activity, SRB assay, CNS panel; assay type: cell-based, human
Protocol: as §1, §2

IGROV1 = assay: Anticancer activity, SRB assay, ovarian cell line IGROV1; assay type: cell-based, human; settings: Homo sapiens, IGROV-1, 48 h continuous drug exposure, —^b means GI50 values not attained at the concentrations used, read-out: Growth Inhibition GI50
Protocol: as §1, §2

SF-268 = assay: Anticancer activity, SRB assay, CNS cell line SF-268; assay type: cell-based, human; settings: Homo sapiens; CNS SF-268; 48 h continuous drug exposure; —^b means GI50 values not attained at the concentrations used; read-out: Growth Inhibition GI50
Protocol: as §1, §2

RPMI-8226 = assay: Anticancer activity, SRB assay, leukemia cell line RPMI-8226; assay type: cell-based; settings: Homo sapiens; Leukemia RPMI-8226; 48 h continuous drug exposure; read-out: Growth Inhibition GI50
Protocol: as §1, §2

K-562 = assay: Anticancer activity, SRB assay, leukemia cell line K-562; assay type: cell-based; settings: Homo sapiens, K562; Leukemia K-562; 48 h continuous drug exposure; read-out: Growth Inhibition GI50
Protocol: as §1, §2

## Cc1cc(C#Cc2ccccc2)ccc1-n1c(/C=C/c2ccc(O)cc2)nc2ccccc2c1=O [Compound 4b, (E)-2-(4-Hydroxystyryl)-3-(2-methyl-4-(phenylethynyl)phenyl)quinazolin-4(3H)-one]
A498
  GI50: 1.56 µM
OVCAR-4
  GI50: 3.17 µM
HS 578T
  GI50: 2.48 µM
[1]; Breast, log value of concentration of the compound resulting in total inhibition of net cell growth
  mean graph midpoint values (MG_MID) of log10 TGI (Log10TGI50): −4.58
[1]; Breast, log value of the concentration of compounds leading to 50% net cell death
  mean graph midpoint values (MG_MID) of Log10LC50: >−4.00
[1]; Breast, log values of concentration in mol/L causing 50% inhibition of net cell growth
  mean graph midpoint values (MG_MID) of Log10GI50: −5.54 mol/L
[1]; Homo sapiens, six breast cancer cell line, exposure period of at least 48 h, read-out: GI50 (range over the panel)
  GI50: 2.02 to 3.89 µM
[2]; Colon, log value of concentration of the compound resulting in total inhibition of net cell growth
  mean graph midpoint values (MG_MID) of log10 TGI (Log10TGI50): −4.83
[2]; Colon, log value of the concentration of compounds leading to 50% net cell death
  mean graph midpoint values (MG_MID) of Log10LC50: −4.15
[2]; Colon, log values of concentration in mol/L causing 50% inhibition of net cell growth
  mean graph midpoint values (MG_MID) of Log10GI50: −5.55 mol/L
[2]; Homo sapiens, seven colon cancer cell line, exposure period of at least 48 h, read-out: GI50 (range over the panel)
  GI50: 1.99 to 4.08 µM
SK-MEL-5
  GI50: 1.77 µM
[3]; Homo sapiens, DU-145, two prostate cancer cell line, exposure period of at least 48 h, read-out: GI50 (range over the panel)
  GI50: 3.24 to 4.87 µM
[3]; Prostate, log value of concentration of the compound resulting in total inhibition of net cell growth
  mean graph midpoint values (MG_MID) of log10 TGI (Log10TGI50): >−4.00
[3]; Prostate, log value of the concentration of compounds leading to 50% net cell death
  mean graph midpoint values (MG_MID) of Log10LC50: >−4.00
[3]; Prostate, log values of concentration in mol/L causing 50% inhibition of net cell growth
  mean graph midpoint values (MG_MID) of Log10GI50: −5.40 mol/L
OVCAR-8
  GI50: 3.98 µM
HOP-62
  GI50: 13.1 µM
NCI-H23
  GI50: 3.62 µM
HCT-116
  GI50: 2.66 µM
NCI-H226
  GI50: 3.99 µM
SN12C
  GI50: 3.77 µM
EKVX
  GI50: 2.43 µM
MDA-MB-231/ATCC
  GI50: 3.89 µM
[4]; Homo sapiens, seven ovarian cancer cell lines, exposure period of at least 48 h, read-out: GI50 (range over the panel)
  GI50: 3.09 to 20.6 µM
[4]; Ovarian, log value of concentration of the compound resulting in total inhibition of net cell growth
  mean graph midpoint values (MG_MID) of log10 TGI (Log10TGI50): −4.23
[4]; Ovarian, log value of the concentration of compounds leading to 50% net cell death
  mean graph midpoint values (MG_MID) of Log10LC50: >−4.00
[4]; Ovarian, log values of concentration in mol/L causing 50% inhibition of net cell growth
  mean graph midpoint values (MG_MID) of Log10GI50: −5.33 mol/L
HL-60(TB)
  GI50: 1.66 µM
NCI-H522
  GI50: 2.26 µM
MOLT-4
  GI50: 2.36 µM
SW-620
  GI50: 4.08 µM
[5]; CNS, log value of concentration of the compound resulting in total inhibition of net cell growth
  mean graph midpoint values (MG_MID) of log10 TGI (Log10TGI50): −4.21
[5]; CNS, log value of the concentration of compounds leading to 50% net cell death
  mean graph midpoint values (MG_MID) of Log10LC50: >−4.00
[5]; CNS, log values of concentration in mol/L causing 50% inhibition of net cell growth
  mean graph midpoint values (MG_MID) of Log10GI50: −5.35 mol/L
[5]; Homo sapiens, six CNS cancer cell line, exposure period of at least 48 h, read-out: GI50 (range over the panel)
  GI50: 2.85 to 6.91 µM
IGROV1
  GI50: 20.6 µM
SF-268
  GI50: 4.56 µM
RPMI-8226
  GI50: 2.33 µM
K-562
  GI50: 2 µM
